From patent US10221163B2 (priority 2015, dated 2019)
pIC50: −log10 of the molar value. Like-named read-outs stand apart in the source and are kept apart here.

What was measured:
[1] = target: IMP-1 (Serratia marcescens, UniProt P52699); test: biochemical; assay type: biochemical; settings: fluorescence assay, CCF2-FA substrate, 2 pM enzyme, 2 hours at 25° C., read-out: IMP-1 IC50
Procedure, shortened: (§1)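 Fluorescence assay of metallo-β-lactamase activity using CCF2-FA, a cephalosporin-linked 7-hydroxycoumarin–fluorescein substrate. Inhibitor, enzyme and substrate were incubated together for 2 hours at 25° C. IC50 came from a 4-parameter fit of inhibition versus inhibitor concentration.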

[2] = target: NDM-1 (Klebsiella pneumoniae, UniProt C7C422); test: biochemical; assay type: biochemical; settings: fluorescence assay, CCF2-FA substrate, 1 pM enzyme, 2 hours at 25° C., read-out: NDM-1 IC50
Chain of NDM-1 (C7C422 whole entry, looked up, species assumed): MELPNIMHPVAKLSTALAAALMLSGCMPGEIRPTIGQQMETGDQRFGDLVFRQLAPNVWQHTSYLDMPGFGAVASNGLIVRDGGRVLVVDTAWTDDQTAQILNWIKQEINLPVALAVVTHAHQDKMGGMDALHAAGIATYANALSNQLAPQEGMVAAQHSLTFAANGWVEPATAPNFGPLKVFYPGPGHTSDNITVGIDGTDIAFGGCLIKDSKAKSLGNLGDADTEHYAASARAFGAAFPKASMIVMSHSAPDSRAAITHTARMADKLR
Procedure, shortened: as §1

[3] = target: VIM-1 (Pseudomonas aeruginosa (strain ATCC 15692 / DSM 22644 / CIP 104116 / JCM 14847 / LMG 12228 / 1C / PRS 101 / PAO1), UniProt A0A0F7KYQ8); test: biochemical; settings: CCF2-FA substrate, 30 pM enzyme, 2 hours at 25° C.
Procedure, shortened: as §1

[4] = tested on: Escherichia coli expressing NDM-1 (CLB30005, CLB30016); assay type: cell-based; settings: with imipenem 1 μg/ml; 95% inhibition of bacterial growth
Procedure, shortened: (§2)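 Growth by absorbance after 22–24 h at 35°C defined the read-out, with imipenem fixed at 1 μg/ml alongside compound. Inocula came from overnight blood-agar colonies at 35°C, resuspended in saline and diluted 1:100 in 1.1×CAMHB.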

[5] = tested on: Klebsiella pneumoniae expressing VIM-1 (IHMA599644); assay type: cell-based; settings: with imipenem 1 μg/ml; 95% inhibition of bacterial growth
Procedure, shortened: as §2

[6] = tested on: Serratia marcescens expressing IMP-1 (CL5741); assay type: cell-based; settings: with imipenem 1 μg/ml; 95% inhibition of bacterial growth
Procedure, shortened: as §2

[7] = tested on: Pseudomonas aeruginosa efflux+ (MB9798), IMP-1; assay type: cell-based; settings: concentration restoring susceptibility to imipenem at 2 μg/mL in the presence of a class A, C, D serine β-lactamase inhibitor closely related to relebactam
Procedure, shortened: (§3)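 PAO1 pair, broth microdilution; fixed β-lactam (imipenem/ceftazidime) at ~CLSI breakpoint + fixed class A/C BLI for AmpC; serial MBLi titration; endpoint = MBLi conc. restoring susceptibility; MB9798:MB9799 ratio = efflux liability.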

[8] = tested on: Pseudomonas aeruginosa efflux− (MB9799), IMP-1; assay type: cell-based; settings: concentration restoring susceptibility to imipenem at 2 μg/mL in the presence of a class A, C, D serine β-lactamase inhibitor closely related to relebactam
Procedure, shortened: as §3

[9] = tested on: Pseudomonas aeruginosa MB9798 vs MB9799; settings: ratio MITC95 PA_9798/MITC95 PA_9799
Procedure, shortened: as §3

[10] = fluorescence assay, read-out: VIM-1 IC50

Chain of IMP-1 (P52699 whole entry, looked up, species assumed): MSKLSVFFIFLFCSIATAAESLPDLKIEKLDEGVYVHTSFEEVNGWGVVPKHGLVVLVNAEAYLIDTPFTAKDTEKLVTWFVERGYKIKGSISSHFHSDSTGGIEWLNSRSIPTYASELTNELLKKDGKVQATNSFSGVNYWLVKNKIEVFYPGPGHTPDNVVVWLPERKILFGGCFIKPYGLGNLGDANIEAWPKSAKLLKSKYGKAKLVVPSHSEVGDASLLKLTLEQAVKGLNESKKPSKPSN

CNCCCN(C)S(=O)(=O)c1ccc(-c2cccc3sc(N)nc23)c(-c2nnn[nH]2)c1S(N)(=O)=O.O=C(O)C(F)(F)F [Example 93, 3-(4-(2-aminobenzo[d]thiazol-4-yl)-N-methyl-2-sulfamoyl-3-(1H-tetrazol-5-yl)phenylsulfonamido)-N-methylpropan-1-aminium 2,2,2-trifluoroacetate]
pIC50 [1]: 8.28
pIC50 [2]: 8.20
pIC50 [3, 10]: 7.91
Escherichia coli expressing NDM-1 (CLB30016) MITC95 [4]: 6.25 µM
Klebsiella pneumoniae expressing VIM-1 (IHMA599644) MITC95 [5]: 12.5 µM
Serratia marcescens expressing IMP-1 (CL5741) MITC95 [6]: 3.125 µM
P. aeruginosa expressing IMP-1, efflux + (MB9798) MITC95 [7]: 3.125 µM
P. aeruginosa expressing IMP-1, efflux − (MB9799) MITC95 [8]: 3.125 µM
Efflux ratio [9]: 1.00

NC[C@@H]1CCN(S(=O)(=O)c2ccc(-c3cccc4sc(N)nc34)c(-c3nnn[nH]3)c2S(N)(=O)=O)C1.O=C(O)C(F)(F)F [Example 94, (S)-(1-((4-(2-aminobenzo[d]thiazol-4-yl)-2-sulfamoyl-3-(1H-tetrazol-5-yl)phenyl)sulfonyl)pyrrolidin-3-yl)methanaminium 2,2,2-trifluoroacetate]
pIC50 ([1]; 2,2,2-trifluoroacetate): 9.14
pIC50 ([2]; 2,2,2-trifluoroacetate): 9.24
pIC50 ([3]; VIM-1 IC50, fluorescence assay): 9.01
Escherichia coli expressing NDM-1 (CLB30016) MITC95 [4]: 3.646 µM
Klebsiella pneumoniae expressing VIM-1 (IHMA599644) MITC95 [5]: 3.125 µM
Serratia marcescens expressing IMP-1 (CL5741) MITC95 [6]: 2.083 µM
P. aeruginosa expressing IMP-1, efflux + (MB9798) MITC95 [7]: 1.563 µM
P. aeruginosa expressing IMP-1, efflux − (MB9799) MITC95 [8]: 1.563 µM
Efflux ratio [9]: 1.00

Nc1nc2c(-c3ccc(S(=O)(=O)NC4CCC5OC4CC5N)c(S(N)(=O)=O)c3-c3nnn[nH]3)cccc2s1.O=C(O)C(F)(F)F (stereo not drawn) [Example 95, 2-(4-(2-aminobenzo[d]thiazol-4-yl)-2-sulfamoyl-3-(1H-tetrazol-5-yl)phenylsulfonamido)-8-oxabicyclo[3.2.1]octan-6-aminium 2,2,2-trifluoroacetate]
pIC50 [1]: 9.72
pIC50 [2]: 10.57
pIC50 [3, 10]: 9.76
Escherichia coli expressing NDM-1 (CLB30016) MITC95 [4]: 1.563 µM
Klebsiella pneumoniae expressing VIM-1 (IHMA599644) MITC95 [5]: 3.125 µM
Serratia marcescens expressing IMP-1 (CL5741) MITC95 [6]: 3.125 µM
P. aeruginosa expressing IMP-1, efflux + (MB9798) MITC95 [7]: 1.563 µM
P. aeruginosa expressing IMP-1, efflux − (MB9799) MITC95 [8]: 1.563 µM
Efflux ratio [9]: 1.00

Nc1nc2c(-c3ccc(S(=O)(=O)NCC4COCCN4)c(S(N)(=O)=O)c3-c3nnn[nH]3)cccc2s1.O=C(O)C(F)(F)F (stereo not drawn) [Example 96, 3-((4-(2-aminobenzo[d]thiazol-4-yl)-2-sulfamoyl-3-(1H-tetrazol-5-yl)phenylsulfonamido)methyl)morpholin-4-ium 2,2,2-trifluoroacetate]
pIC50 [1]: 9.40
pIC50 [2]: 10.12
pIC50 ([3]; VIM-1 IC50, fluorescence assay): 9.52
Escherichia coli expressing NDM-1 (CLB30016) MITC95 [4]: 6.25 µM
Klebsiella pneumoniae expressing VIM-1 (IHMA599644) MITC95 [5]: 6.25 µM
Serratia marcescens expressing IMP-1 (CL5741) MITC95 [6]: 3.125 µM
P. aeruginosa expressing IMP-1, efflux + (MB9798) MITC95 [7]: 3.125 µM
P. aeruginosa expressing IMP-1, efflux − (MB9799) MITC95 [8]: 3.125 µM
Efflux ratio [9]: 1.00

Nc1nc2c(-c3ccc(S(=O)(=O)NC4CN5CCC4CC5)c(S(N)(=O)=O)c3-c3nnn[nH]3)cccc2s1.O=C(O)C(F)(F)F (stereo not drawn) [Example 97, 3-(4-(2-aminobenzo[d]thiazol-4-yl)-2-sulfamoyl-3-(1H-tetrazol-5-yl)phenylsulfonamido)quinuclidin-1-ium 2,2,2-trifluoroacetate]
pIC50 [1]: 9.42
pIC50 [2]: 10.67
pIC50 ([3]; VIM-1 IC50, fluorescence assay): 9.65
Escherichia coli expressing NDM-1 (CLB30016) MITC95 [4]: 3.125 µM
Klebsiella pneumoniae expressing VIM-1 (IHMA599644) MITC95 [5]: 3.125 µM
Serratia marcescens expressing IMP-1 (CL5741) MITC95 [6]: 3.125 µM
P. aeruginosa expressing IMP-1, efflux + (MB9798) MITC95 [7]: 1.563 µM
P. aeruginosa expressing IMP-1, efflux − (MB9799) MITC95 [8]: 1.563 µM
Efflux ratio [9]: 1.00

CN(CCc1ccncc1)S(=O)(=O)c1ccc(-c2cccc3sc(N)nc23)c(-c2nnn[nH]2)c1S(N)(=O)=O.O=C(O)C(F)(F)F [Example 100, 4-(2-(4-(2-aminobenzo[d]thiazol-4-yl)-N-methyl-2-sulfamoyl-3-(1H-tetrazol-5-yl)phenylsulfonamido)ethyl)pyridin-1-ium 2,2,2-trifluoroacetate]
pIC50 [1]: 8.49
pIC50 [2]: 8.41
pIC50 ([3]; VIM-1 IC50, fluorescence assay): 7.90
Escherichia coli expressing NDM-1 (CLB30016) MITC95 [4]: 50 µM
Klebsiella pneumoniae expressing VIM-1 (IHMA599644) MITC95 [5]: 200 µM
Serratia marcescens expressing IMP-1 (CL5741) MITC95 [6]: 25 µM
P. aeruginosa expressing IMP-1, efflux + (MB9798) MITC95 [7]: 200 µM
P. aeruginosa expressing IMP-1, efflux − (MB9799) MITC95 [8]: 6.25 µM
Efflux ratio [9]: 32.00

CC1(CN)CN(S(=O)(=O)c2ccc(-c3cccc4sc(N)nc34)c(-c3nnn[nH]3)c2S(N)(=O)=O)C1.O=C(O)C(F)(F)F [Example 101, (1-((4-(2-aminobenzo[d]thiazol-4-yl)-2-sulfamoyl-3-(1H-tetrazol-5-yl)phenyl)sulfonyl)-3-methylazetidin-3-yl)methanaminium 2,2,2-trifluoroacetate]
pIC50 [1]: 8.90
pIC50 [2]: 9.54
pIC50 ([3]; VIM-1 IC50, fluorescence assay): 9.13
Escherichia coli expressing NDM-1 (CLB30016) MITC95 [4]: 3.125 µM
Klebsiella pneumoniae expressing VIM-1 (IHMA599644) MITC95 [5]: 6.25 µM
Serratia marcescens expressing IMP-1 (CL5741) MITC95 [6]: 3.125 µM
P. aeruginosa expressing IMP-1, efflux + (MB9798) MITC95 [7]: 3.125 µM
P. aeruginosa expressing IMP-1, efflux − (MB9799) MITC95 [8]: 3.125 µM
Efflux ratio [9]: 1.00

CN1CCC(CNS(=O)(=O)c2ccc(-c3cccc4sc(N)nc34)c(-c3nnn[nH]3)c2S(N)(=O)=O)C1.O=C(O)C(F)(F)F (stereo not drawn) [Example 102, 3-((4-(2-aminobenzo[d]thiazol-4-yl)-2-sulfamoyl-3-(1H-tetrazol-5-yl)phenylsulfonamido)methyl)-1-methylpyrrolidin-1-ium 2,2,2-trifluoroacetate]
pIC50 [1]: 9.58
pIC50 [2]: 10.49
pIC50 ([3]; VIM-1 IC50, fluorescence assay): 9.71
Escherichia coli expressing NDM-1 (CLB30016) MITC95 [4]: 3.125 µM
Klebsiella pneumoniae expressing VIM-1 (IHMA599644) MITC95 [5]: 3.125 µM
Serratia marcescens expressing IMP-1 (CL5741) MITC95 [6]: 1.563 µM
P. aeruginosa expressing IMP-1, efflux + (MB9798) MITC95 [7]: 0.7813 µM
P. aeruginosa expressing IMP-1, efflux − (MB9799) MITC95 [8]: 1.563 µM
Efflux ratio [9]: 0.50

Nc1nc2c(-c3ccc(S(=O)(=O)N[C@H]4CO[C@H]5[C@@H]4OC[C@H]5N)c(S(N)(=O)=O)c3-c3nnn[nH]3)cccc2s1.O=C(O)C(F)(F)F [Example 103, (3R,3aR,6S,6aR)-6-(4-(2-aminobenzo[d]thiazol-4-yl)-2-sulfamoyl-3-(1H-tetrazol-5-yl)phenylsulfonamido)hexahydrofuro[3,2-b]furan-3-aminium 2,2,2-trifluoroacetate]
pIC50 [1]: 9.65
pIC50 [2]: 10.53
pIC50 ([3]; VIM-1 IC50, fluorescence assay): 9.71
Escherichia coli expressing NDM-1 (CLB30016) MITC95 [4]: 3.125 µM
Klebsiella pneumoniae expressing VIM-1 (IHMA599644) MITC95 [5]: 3.125 µM
Serratia marcescens expressing IMP-1 (CL5741) MITC95 [6]: 3.125 µM
P. aeruginosa expressing IMP-1, efflux + (MB9798) MITC95 [7]: 3.125 µM
P. aeruginosa expressing IMP-1, efflux − (MB9799) MITC95 [8]: 1.563 µM
Efflux ratio [9]: 2.00

NCC1CN(S(=O)(=O)c2ccc(-c3cccc4sc(N)nc34)c(-c3nnn[nH]3)c2S(N)(=O)=O)CCO1.O=C(O)C(F)(F)F (stereo not drawn) [Example 104, (4-((4-(2-aminobenzo[d]thiazol-4-yl)-2-sulfamoyl-3-(1H-tetrazol-5-yl)phenyl)sulfonyl)morpholin-2-yl)methanaminium 2,2,2-trifluoroacetate]
pIC50 [1]: 8.91
pIC50 [2]: 9.64
pIC50 [3, 10]: 8.80
Escherichia coli expressing NDM-1 (CLB30016) MITC95 [4]: 1.563 µM
Klebsiella pneumoniae expressing VIM-1 (IHMA599644) MITC95 [5]: 6.25 µM
Serratia marcescens expressing IMP-1 (CL5741) MITC95 [6]: 3.125 µM
P. aeruginosa expressing IMP-1, efflux + (MB9798) MITC95 [7]: 3.125 µM
P. aeruginosa expressing IMP-1, efflux − (MB9799) MITC95 [8]: 1.563 µM
Efflux ratio [9]: 2.00

CN(C1CNC1)S(=O)(=O)c1ccc(-c2cccc3sc(N)nc23)c(-c2nnn[nH]2)c1S(N)(=O)=O.O=C(O)C(F)(F)F [Example 105, 3-(4-(2-aminobenzo[d]thiazol-4-yl)-N-methyl-2-sulfamoyl-3-(1H-tetrazol-5-yl)phenylsulfonamido)azetidin-1-ium 2,2,2-trifluoroacetate]
pIC50 [1]: 8.93
pIC50 [2]: 9.69
pIC50 ([3]; VIM-1 IC50, fluorescence assay): 8.94
Escherichia coli expressing NDM-1 (CLB30016) MITC95 [4]: 1.563 µM
Klebsiella pneumoniae expressing VIM-1 (IHMA599644) MITC95 [5]: 6.25 µM
Serratia marcescens expressing IMP-1 (CL5741) MITC95 [6]: 1.563 µM
P. aeruginosa expressing IMP-1, efflux + (MB9798) MITC95 [7]: 1.563 µM
P. aeruginosa expressing IMP-1, efflux − (MB9799) MITC95 [8]: 1.563 µM
Efflux ratio [9]: 1.00
